pIC50: −log10 of the molar value.
Tests used:
[1] = target: T1, neutral endopeptidase (NEP) (Rattus norvegicus, UniProt P07861); test: inhibition of neutral endopeptidase (NEP), substrate not stated with the result; type: biochemical; conditions: for relative NEP inhibiting activity of isomers: compared with the other isomer; for pIC50: substrate (GAAP or ANF) not stated
T1 sequence (P07861 1-750): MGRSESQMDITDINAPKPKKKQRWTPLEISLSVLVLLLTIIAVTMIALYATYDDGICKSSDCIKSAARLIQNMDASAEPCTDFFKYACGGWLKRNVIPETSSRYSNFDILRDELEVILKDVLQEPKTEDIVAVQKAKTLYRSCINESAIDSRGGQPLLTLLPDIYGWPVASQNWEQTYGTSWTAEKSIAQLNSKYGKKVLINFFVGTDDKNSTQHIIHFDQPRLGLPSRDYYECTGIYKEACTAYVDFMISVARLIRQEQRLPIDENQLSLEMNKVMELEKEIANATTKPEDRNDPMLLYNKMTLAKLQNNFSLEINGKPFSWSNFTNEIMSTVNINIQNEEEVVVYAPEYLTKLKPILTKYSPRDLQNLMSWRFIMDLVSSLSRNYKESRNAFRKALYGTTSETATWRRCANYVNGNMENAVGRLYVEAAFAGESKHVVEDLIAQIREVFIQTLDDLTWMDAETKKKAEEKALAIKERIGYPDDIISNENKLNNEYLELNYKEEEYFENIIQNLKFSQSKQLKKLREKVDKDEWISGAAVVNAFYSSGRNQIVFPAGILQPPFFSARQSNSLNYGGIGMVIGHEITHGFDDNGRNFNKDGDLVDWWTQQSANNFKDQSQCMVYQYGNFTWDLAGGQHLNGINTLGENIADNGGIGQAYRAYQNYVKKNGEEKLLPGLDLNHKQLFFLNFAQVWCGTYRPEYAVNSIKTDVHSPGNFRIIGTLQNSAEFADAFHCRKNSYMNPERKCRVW
Description: The in vitro inhibition of neutral endopeptidase (NEP) 3.4.24.11 can be determined as follows:
Neutral endopeptidase 3.4.24.11 activity is determined by the hydrolysis of the substrate glutaryl-Ala-Ala-Phe-2-naphthylamide (GAAP) using a modified procedure of Orlowski and Wilk (1981). The incubation mixture (total volume 125 μl) contains 4.2 μg of protein (rat kidney cortex membranes prepared by method of Maeda et al, 1983), 50 mM tris buffer, pH 7.4 at 25° C., 500 μM substrate (final concentration), and leucine aminopeptidase M (2.5 μg). The mixture is incubated for 10 minutes at 25° C. and 100 μl of fast garnet (250 μg fast garnet/ml of 10% Tween 20 in 1M sodium acetate, pH 4.2) is added. Enzyme activity is measured spectrophotometrically at 540 nm. One unit of NEP 24.11 activity is defined as 1 nmol of 2-naphthylamine released per minute at 25° C. at pH 7.4. IC50 values for inhibition of the enzyme are determined, i.e. the concentration of test compound required for 50% inhibition of the release of 2-naphthylamine.
Neutral endopeptidase activity is also determined using ANF as a substrate. A trial natriuretic factor degrading activity is determined by measuring the disappearance of rat-ANF (r-ANF) using a 3 minute reverse phase-HPLC separation. An aliquot of the enzyme in 50 mM Tris HCl buffer, pH 7.4, is preincubated at 37° C. for 2 minutes and the reaction is initiated by the addition of 4 nmol of r-ANF in a total volume of 50 μl. The reaction is terminated after 4 minutes with the addition of 30 μl of 0.27% trifluoroacetic acid (TFA). Forty microliters of the mixture is injected into a reverse phase-HPLC and analyzed using a C4 cartridge in a 3 minute, isocratic separation. Twenty-three percent of buffer B (0.1% TFA in 80% acetonitrile) is used. Buffer A is 0.1% TFA in water. One unit of activity is defined as the hydrolysis of 1 nmol of r-ANF per minute at 37° C. at pH 7.4. IC50 values for inhibition of the enzyme are determined, i.e. the concentration of test compound required for 50% inhibition of the hydrolysis of ANF.
The test compound is dissolved in dimethyl sulfoxide or 0.25M sodium bicarbonate solution, and the solution is diluted with pH 7.4 buffer to the desired concentration.
In vitro testing is most appropriate for the free mercapto carboxylic acids of the invention.

[2] = target: T2, Neutral endopeptidase 3.4.24.11 (Rattus norvegicus, UniProt P07861); test: in vitro inhibition of neutral endopeptidase (NEP) 3.4.24.11, GAAP substrate; type: biochemical; conditions: pH 7.4, 25° C.
T2 construct: rat kidney cortex membranes prepared by method of Maeda et al, 1983; from tissue; host or cells: rat kidney cortex membranes
T2 sequence (P07861 1-750): T1 sequence (P07861 1-750)

[3] = target: T3, angiotensin-converting enzyme (ACE) (Oryctolagus cuniculus, UniProt P12822); test: in vitro inhibition of the angiotensin-converting enzyme (ACE), hippuryl-histidyl-leucine substrate; type: biochemical, rabbit; conditions: 37° C., 30 minutes
T3 construct: angiotensin-converting enzyme preparation (from lungs of adult male rabbits); from tissue; host or cells: lungs of adult male rabbits
T3 sequence (P12822 34-1310): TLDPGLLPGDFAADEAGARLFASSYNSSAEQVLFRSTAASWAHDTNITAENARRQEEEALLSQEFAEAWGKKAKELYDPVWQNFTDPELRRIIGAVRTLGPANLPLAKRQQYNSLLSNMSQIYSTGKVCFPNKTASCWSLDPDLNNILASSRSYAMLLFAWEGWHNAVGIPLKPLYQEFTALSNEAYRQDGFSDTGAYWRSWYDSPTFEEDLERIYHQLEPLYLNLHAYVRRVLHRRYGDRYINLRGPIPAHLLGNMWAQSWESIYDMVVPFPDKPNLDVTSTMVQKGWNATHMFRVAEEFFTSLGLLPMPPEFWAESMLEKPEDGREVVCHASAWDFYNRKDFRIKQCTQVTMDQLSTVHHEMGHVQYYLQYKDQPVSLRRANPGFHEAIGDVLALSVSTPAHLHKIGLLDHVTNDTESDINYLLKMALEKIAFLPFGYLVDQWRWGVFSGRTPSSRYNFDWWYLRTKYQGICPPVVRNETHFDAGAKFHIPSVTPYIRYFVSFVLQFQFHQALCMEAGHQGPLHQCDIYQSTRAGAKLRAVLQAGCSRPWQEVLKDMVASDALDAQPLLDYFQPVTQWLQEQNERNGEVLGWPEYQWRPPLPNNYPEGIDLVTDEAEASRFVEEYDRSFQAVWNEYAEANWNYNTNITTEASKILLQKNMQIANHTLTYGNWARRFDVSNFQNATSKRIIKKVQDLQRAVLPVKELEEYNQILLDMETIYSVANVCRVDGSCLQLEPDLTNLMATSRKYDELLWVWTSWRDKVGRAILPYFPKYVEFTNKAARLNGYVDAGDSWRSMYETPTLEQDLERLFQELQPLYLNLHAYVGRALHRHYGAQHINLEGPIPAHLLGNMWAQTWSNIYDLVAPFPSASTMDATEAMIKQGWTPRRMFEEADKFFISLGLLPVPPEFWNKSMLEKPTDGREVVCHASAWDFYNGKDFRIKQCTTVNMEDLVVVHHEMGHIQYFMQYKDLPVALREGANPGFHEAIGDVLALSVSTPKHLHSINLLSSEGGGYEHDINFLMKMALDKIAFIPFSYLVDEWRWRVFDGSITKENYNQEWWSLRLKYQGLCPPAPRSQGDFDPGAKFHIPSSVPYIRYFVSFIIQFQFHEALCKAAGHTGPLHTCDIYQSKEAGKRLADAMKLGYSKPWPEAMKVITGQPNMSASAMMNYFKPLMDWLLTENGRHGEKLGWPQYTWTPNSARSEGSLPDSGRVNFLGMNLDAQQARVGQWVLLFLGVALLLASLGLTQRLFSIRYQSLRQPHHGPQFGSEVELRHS
Description: Biophys. Acta 293, p. 451 (1973). For example, said compounds are dissolved at about 1 mM concentration in phosphate buffer. To 100 microliters of solutions of the test compound in phosphate buffer, diluted to the desired concentration, are added 100 microliters of 5 mM hippuryl-histidyl-leucine in phosphate buffer, followed by 50 microliters of the angiotensin-converting enzyme preparation (from lungs of adult male rabbits) in Tris buffer, containing potassium and magnesium chloride, as well as sucrose. Said solutions are incubated at 37° C. for 30 minutes and combined with 0.75 ml of 0.6N aqueous sodium hydroxide to stop further reaction. Then 100 microliters of a 0.2% solution of o-phthalaldehyde in methanol are added at room temperature, and 10 minutes later 100 microliters of 6N hydrochloric acid. These samples are read against water in a spectrophotometer set at 360 nm, and the optical densities thereof estimated. They are corrected for the standard curve via a conversion factor expressing nanomoles of histidyl-leucine formed during said 30 minute incubation period. The results are plotted against drug concentration to determine the IC50, i.e., the drug concentration which gives half the activity of the control sample containing no drug.

| SMILES | relative NEP inhibiting activity of isomers [1] | pIC50 [2] | pIC50 [1] | pIC50 [3] |
| --- | --- | --- | --- | --- |
| O=C1N[C@@H](C(=O)O)CCCCCC[C@H]1CS (relative stereo) [Example 2(b), 3-mercaptomethyl-2-oxo-1-azacyclodecane-10-carboxylic acid] | less active diastereoisomer |  |  |  |
| CC(=O)SC[C@H]1CCCCCC[C@H](C(=O)O)NC1=O (relative stereo) [Example 16, trans 3-(acetylthiomethyl)-2-oxo-1-azacyclodecane-10-carboxylic acid] | more active NEP inhibiting enantiomer |  |  |  |
| O=C1N[C@@H](C(=O)O)CCCCCC[C@@H]1CS (relative stereo) [trans 3-mercaptomethyl-2-oxo-1-azacyclodecane-10-carboxylic acid] | more active neutral endopeptidase (NEP) inhibiting diastereoisomer | ~8.52 |  |  |
| O=C1N[C@H](C(=O)O)CSCCCCCCCC1CS (single isomer, unassigned) | more active NEP inhibiting isomer |  | 7.74 | 7.92 |
| COC(=O)C1CCCCCCCCCCC(CSC(C)=O)C(=O)N1 (single isomer, unassigned) [Example 24 (minor isomer), methyl 3-(acetylthiomethyl)-2-oxo-1-azacyclotetradecane-14-carboxylate] | more active NEP inhibiting isomer |  |  |  |
| O=C1NC(C(=O)O)CCCCCCCCCCC1CS (stereo not drawn) [3-mercaptomethyl-2oxo-1-azacyclotetradecane-14-carboxylic acid] |  |  | ~7.52 | ~7.35 |

Now from value to compound:

| relative NEP inhibiting activity of isomers [1] | pIC50 [2] | pIC50 [1] | pIC50 [3] | SMILES |
| --- | --- | --- | --- | --- |
| more active NEP inhibiting isomer |  |  |  | O=C1NC(C(=O)O)CCCCCCCCCCC1CS (single isomer, unassigned) [Example 25(b), 3-mercaptomethyl-2-oxo-1-azacyclotetradecane-14-carboxylic acid] |
| more active NEP inhibiting isomer |  |  |  | O=C1N[C@H](C(=O)O)CSCCCCCCCCC1CS (single isomer, unassigned) [Example 35(b)] |

Reference: patent US5426103A, “Certain macrocyclic lactam derivatives” (Ciba-Geigy Corporation, priority 1993, dated 1995)
